Test results as given in patent US8299074B2, “P38 MAP kinase inhibitors” (RespiVert Ltd., priority 2008, dated 2012).
Read-outs that look alike come from different tables or passages of the source.

Experiments:
p38 MAPK alpha (MAPK14) = biological target: T1, p38 MAPK alpha (MAPK14) (Homo sapiens, UniProt Q16539); assay: Enzyme inhibition assay, p38 MAPK alpha (FRET, Z-LYTE, via MAPKAP-K2); type: biochemical; conditions: read-out: Enzyme p38α IC50
T1 construct: purchased Invitrogen

THP-1 cells = assay: LPS-induced TNF alpha release in THP-1 cells; type: cell-based; conditions: Homo sapiens
Protocol: LPS-Induced TNF Alpha Release in THP-1 Cells: Potency […] Coli; O111:B4, Sigma) for 4 hr and the supernatant collected for determination of TNFα concentration by sandwich ELISA (Duo-set, R&D systems). The inhibition of TNFα production was calculated at each concentration by comparison with vehicle control.

U937 cells [1] = assay: LPS-induced TNF alpha release in U937 cells; type: cell-based
Protocol: (§1) LPS-Induced TNF Alpha/IL-8 Release in U937 Cells: Potency U937 cells, human monocytic cell line, were differentiated to macrophage-type cells by incubation with phorbol myristate acetate (PMA; 100 ng/ml) for 48 to 72 hours. Cells were pre-incubated with final concentrations of compound for 2 hrs. […] Coli: O111:B4, Sigma) for 4 hrs, and the supernatant collected for determination of TNFα and IL-8 concentration by sandwich ELISA (Duo-set, R&D systems). […] The inhibition of IL-8 production was calculated at each concentration of test compound by comparison with vehicle control.

U937 cells [2] = assay: LPS-induced IL-8 release in U937 cells; type: cell-based; conditions: Homo sapiens, read-out: DU937 (LPS) IL-8 IC50
Protocol: as §1

BEAS2B cells = assay: Poly I:C-induced ICAM-1 induction in BEAS2B cells; type: cell-based; conditions: Homo sapiens, BEAS-2B, read-out: BEAS2B (polyIC) ICAM1 IC50
Protocol: Poly I:C-Induced ICAM-1 Induction in BEAS2B Cells: Potency Poly I:C (1 ug/ml) (Invivogen Ltd., San Diego, Calif.) was transfected into BEAS2B cells (human bronchial epithelial cells, ATCC) with Oligofectamine (Invitrogen, Carlsbad, Calif.). Cells were pre-incubated with final concentrations of compound for 2 hrs. The level of ICAM1 expression on the cell surface was determined by cell-based ELISA. Briefly, at 18 hrs after poly I:C transfection, cells were fixed with 4% formaldehyde in PBS. After quenching endogenous peroxidase by adding 0.1% sodium azide and 1% hydrogen peroxide, cells were washed with wash-buffer (0.1% Tween in PBS: PBS-Tween). After blocking the wells with 5% milk in PBS-Tween for 1 hr, the cells were incubated with anti-human ICAM-1 antibody (Cell Signaling Technology, Danvers, Mass.) in 1% BSA PBS overnight at 4° C. Cells were washed with PBS-Tween and incubated with the secondary antibody (HRP-conjugated anti-rabbit IgG, Dako Ltd., Glostrup, Denmark). The ICAM-1 signal was detected by adding substrate and reading at 450 nm with a reference wavelength of 655 nm using a spectrophotometer. […] The measured OD 450-655 readings were corrected for cell number by dividing with the OD595 reading in each well.

[3] = system: Differentiated U937 cells; assay: MTT assay (cell viability); type: cell-based, human
Protocol: MTT Assay Differentiated U937 cells were pre-incubated with compound for 4 hrs in 5% FCS or 10% FCS for 24 hrs. […] After 1 hr incubation, the media were removed, 200 ul of DMSO added to each well and the plates were shaken lightly for 1 h prior to reading the absorbance at 550 nm. The percentage loss of cell viability was calculated for each well relative to vehicle (0.5% DMSO)-treatment. Consequently an apparent increase in cell viability for drug treatment relative to vehicle is tabulated as a negative percentage.

[4] = THP-1, Table 2, read-out: THP-1 (LPS) TNFα IC50
[5] = Homo sapiens; read-out: DU937 (LPS) TNFα REC50
[6] = Table 2, loss of cell viability at 1 μg/ml
[7] = THP-1, Table 3, read-out: THP-1 (LPS) TNFα IC50
[8] = Table 3, first MTT column, loss of cell viability, test conducted at 10 μg/ml
[9] = Table 3, second MTT column, loss of cell viability, test conducted at 10 μg/ml
[10] = Table 3, first MTT column, loss of cell viability at 1 μg/ml
[11] = Table 3, second MTT column, loss of cell viability at 1 μg/ml

T1 sequence (Q16539 whole entry): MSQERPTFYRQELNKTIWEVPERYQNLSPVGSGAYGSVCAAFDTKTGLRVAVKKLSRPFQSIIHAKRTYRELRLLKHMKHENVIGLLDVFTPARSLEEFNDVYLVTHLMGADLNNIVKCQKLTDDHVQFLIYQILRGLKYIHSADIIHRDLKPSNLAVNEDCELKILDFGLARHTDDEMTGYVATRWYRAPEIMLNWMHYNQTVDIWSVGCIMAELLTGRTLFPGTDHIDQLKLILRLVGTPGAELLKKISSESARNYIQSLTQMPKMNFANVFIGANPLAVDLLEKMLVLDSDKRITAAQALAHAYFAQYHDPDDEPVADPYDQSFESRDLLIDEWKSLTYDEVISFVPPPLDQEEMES

Row | IC50 (p38 MAPK alpha (MAPK14); Table 2) | IC50 (THP-1 cells; [4]) | EC50 (U937 cells [1]; [5]) | IC50 (U937 cells [2]; Table 2) | IC50 (p38 MAPK alpha (MAPK14); Table 3) | IC50 (THP-1 cells; [7]) | IC50 (U937 cells [2]; Table 3) | Structure (SMILES) | IC50 (BEAS2B cells; Table 2) | DU937 (cell viability) MTT assay 4 h [3, 6] | DU937 (cell viability) MTT assay 24 h [3, 6] | IC50 (THP-1 cells; THP-1, read-out: THP-1 (LPS) TNFα IC50) | EC50 (U937 cells [1]; Homo sapiens, read-out: DU937 (LPS) TNFα REC50) | IC50 (U937 cells [2]) | IC50 (BEAS2B cells) | IC50 (BEAS2B cells; Table 3) | DU937 (cell viability) MTT assay 4 h [3, 8] | DU937 (cell viability) MTT assay 4 h [3, 9] | DU937 (cell viability) MTT assay 4 h [3, 10] | DU937 (cell viability) MTT assay 4 h [3, 11]
1 | < 10 nM | < 10 nM | < 10 nM | < 10 nM |  |  |  | COCC(=O)NCC(=O)Nc1cc(Oc2ccc(NC(=O)Nc3cc(C(C)(C)C)nn3-c3ccc(C)cc3)c3ccccc23)ccn1 [Example 15, N-(4-(4-(3-(3-tert-Butyl-1-p-tolyl-1H-pyrazol-5-yl)ureido)naphthalen-1-yloxy)pyridin-2-yl)-2-(2-methoxyacetamido)acetamide] | < 10 nM | − (<=30%) | + (>30%) |  |  |  |  |  |  |  |  | 
2 | < 10 nM | < 10 nM | < 10 nM | < 10 nM |  |  |  | Cc1ccc(-n2nc(C(C)(C)C)cc2NC(=O)Nc2ccc(Oc3ccnc(NC(=O)CNC(=O)C4CCOCC4)c3)c3ccccc23)cc1 [Example 16, N-(2-(4-(4-(3-(3-tert-Butyl-1-p-tolyl-1H-pyrazol-5-yl)ureido)naphthalen-1-yloxy)pyridin-2-ylamino)-2-oxoethyl)tetrahydro-2H-pyran-4-carboxamide] | < 10 nM | − (<=30%) | + (>30%) |  |  |  |  |  |  |  |  | 
3 | < 10 nM | < 10 nM | < 10 nM | < 10 nM |  |  |  | Cc1ccc(-n2nc(C(C)(C)C)cc2NC(=O)Nc2ccc(Oc3ccnc(NC(=O)CNC(=O)CCN4CCOCC4)c3)c3ccccc23)cc1 [Example 19, N-(2-(4-(4-(3-(3-tert-Butyl-1-p-tolyl-1H-pyrazol-5-yl)ureido)naphthalen-1-yloxy)pyridin-2-ylamino)-2-oxoethyl)-3-morpholinopropanamide] | < 10 nM | − (<=30%) | + (>30%) |  |  |  |  |  |  |  |  | 
4 | < 10 nM | < 10 nM | < 10 nM | < 5000 nM |  |  |  | Cc1ccc(-n2nc(C(C)(C)C)cc2NC(=O)Nc2ccc(Oc3ccnc(NC(=O)CNC(=O)N4CCOCC4)c3)c3ccccc23)cc1 [Example 20, N-(2-(4-(4-(3-(3-tert-Butyl-1-p-tolyl-1H-pyrazol-5-yl)ureido)naphthalen-1-yloxy)pyridin-2-ylamino)-2-oxoethyl)morpholine-4-carboxamide] | < 5000 nM | − (<=30%) | − (<=30%) |  |  |  |  |  |  |  |  | 
5 | < 5000 nM | < 10 nM | < 10 nM | < 10 nM |  |  |  | COCC(=O)Nc1cc(Oc2ccc(NC(=O)Nc3cc(C(C)(C)C)nn3-c3ccc(C)cc3)cc2)ccn1 [Example 22, N-(4-(4-(3-(3-tert-Butyl-1-p-tolyl-1H-pyrazol-5-yl)ureido)phenoxy)pyridin-2-yl)-2-methoxyacetamide] | < 5000 nM | − (<=30%) | + (>30%) |  |  |  |  |  |  |  |  | 
6 | < 5000 nM | < 10 nM | < 10 nM | < 10 nM |  |  |  | COCC(=O)Nc1cc(Oc2ccc(NC(=O)Nc3cc(C(C)(C)C)nn3-c3ccc(C)cc3)cc2C)ccn1 [Example 23, N-(4-(4-(3-(3-tert-Butyl-1-p-tolyl-1H-pyrazol-5-yl)ureido)-2-methylphenoxy)pyridin-2-yl)-2-methoxyacetamide] | < 5000 nM | − (<=30%) | − (<=30%) |  |  |  |  |  |  |  |  | 
7 | < 5000 nM | < 10 nM | < 10 nM | < 10 nM |  |  |  | COCC(=O)Nc1cc(Oc2ccc(NC(=O)Nc3cc(C(C)(C)C)nn3-c3ccc(C)cc3)c(C)c2C)ccn1 [Example 26, N-(4-(4-(3-(3-tert-Butyl-1-p-tolyl-1H-pyrazol-5-yl)ureido)-2,3-dimethylphenoxy)pyridin-2-yl)-2-methoxyacetamide] | < 10 nM | − (<=30%) | + (>30%) |  |  |  |  |  |  |  |  | 
8 |  |  | < 5000 nM |  | < 5000 nM | < 10 nM | < 5000 nM | CCNC(=O)Nc1cc(Oc2ccc(NC(=O)Nc3cc(C(C)(C)C)nn3-c3ccc(C)cc3)c3ccccc23)ccn1 [Example 28, N-Ethyl-N′-4-(4-(3-(3-tert-butyl-1-p-tolyl-1H-pyrazol-5-yl)ureido)naphthalen-1-yloxy)pyridin-2-ylurea] |  |  |  |  |  |  |  | < 5000 nM | −^$ (<=30%) | −^$ (<=30%) |  | 
9 |  |  | < 10 nM |  | < 10 nM | < 10 nM | < 5000 nM | Cc1ccc(-n2nc(C(C)(C)C)cc2NC(=O)Nc2ccc(Oc3ccnc(NC(N)=O)c3)c3ccccc23)cc1 [Example 29, 4-(4-(3-(3-tert-Butyl-1-p-tolyl-1H-pyrazol-5-yl)ureido)naphthalen-1-yloxy)pyridin-2-yl urea] |  |  |  |  |  |  |  | < 10 nM |  |  | − (<=30%) | − (<=30%)
10 |  |  | < 5000 nM |  | < 5000 nM | < 10 nM | < 5000 nM | COCCNC(=O)Nc1cc(Oc2ccc(NC(=O)Nc3cc(C(C)(C)C)nn3-c3ccc(C)cc3)c3ccccc23)ccn1 [Example 34, 1-(3-(tert-Butyl)-1-(p-tolyl)-1H-pyrazol-5-yl)-3-(4-((2-(3-(2-methoxyethyl)ureido)pyridin-4-yl)oxy)naphthalen-1-yl)urea] |  |  |  |  |  |  |  | < 5000 nM | −^ ^$ (<=30%) | +^$ (>30%) |  | 
11 |  |  | < 10 nM |  | < 5000 nM | < 10 nM | < 5000 nM | CNC(=O)Nc1cc(Oc2ccc(NC(=O)Nc3cc(C(C)(C)C)nn3-c3ccc(C)cc3)c3ccccc23)ccn1 [Example 36] |  |  |  |  |  |  |  | < 10 nM |  |  | − (<=30%) | − (<=30%)
12 |  |  | < 10 nM |  | < 10 nM | < 10 nM | < 10 nM | CC(=O)N1CCC(NC(=O)Nc2cc(Oc3ccc(NC(=O)Nc4cc(C(C)(C)C)nn4-c4ccc(C)cc4)c4ccccc34)ccn2)CC1 [Example 39, N-Acetyl 4-(3-(4-(4-(3-(3-tert-butyl-1-p-tolyl-1H-pyrazol-5-yl)ureido)naphthalen-1-yloxy)pyridin-2-yl)ureido)piperidine] |  |  |  |  |  |  |  | < 5000 nM |  |  | − (<=30%) | + (>30%)

Row | Structure (SMILES) | IC50 (p38 MAPK alpha (MAPK14); Table 2) | IC50 (THP-1 cells; [4]) | EC50 (U937 cells [1]; [5]) | IC50 (U937 cells [2]; Table 2) | IC50 (p38 MAPK alpha (MAPK14); Table 3) | IC50 (THP-1 cells; [7]) | IC50 (U937 cells [2]; Table 3) | IC50 (BEAS2B cells; Table 2) | DU937 (cell viability) MTT assay 4 h [3, 6] | DU937 (cell viability) MTT assay 24 h [3, 6] | IC50 (THP-1 cells; THP-1, read-out: THP-1 (LPS) TNFα IC50) | EC50 (U937 cells [1]; Homo sapiens, read-out: DU937 (LPS) TNFα REC50) | IC50 (U937 cells [2]) | IC50 (BEAS2B cells) | IC50 (BEAS2B cells; Table 3) | DU937 (cell viability) MTT assay 4 h [3, 8] | DU937 (cell viability) MTT assay 4 h [3, 9] | DU937 (cell viability) MTT assay 4 h [3, 10] | DU937 (cell viability) MTT assay 4 h [3, 11]
13 | Cc1ccc(-n2nc(C(C)(C)C)cc2NC(=O)Nc2ccc(Oc3ccnc(NC(=O)CNC(=O)c4ccncc4)c3)c3ccccc23)cc1 [Example 17, N-(2-(4-(4-(3-(3-tert-Butyl-1-p-tolyl-1H-pyrazol-5-yl)ureido)naphthalen-1-yloxy)pyridin-2-ylamino)-2-oxoethyl)isonicotinamide] | < 10 nM |  |  |  |  |  |  |  | − (<=30%) | + (>30%) | < 10 nM | < 10 nM | < 10 nM | < 10 nM |  |  |  |  | 
